One series deals with CYP1A2 Glu^318Asp. Further details: method as in PMID 7910007. The conditions noted are these: human CYP1A2 ref [37]; cited from earlier work.
Another series relates to CYP6P9a/CYP6P9b. In words: in vitro. The class given is biochemical, Anopheles funestus. The settings on record: inhibition of DEF dealkylation; MALCYP6P9a, BENCYP6P9a, MALCYP6P9b, UGANCYP6P9b; DDT value for all proteins excepting UGANCYP6P9b. Here is the method:
(§1) To further assess differences in the degree of binding of the various recombinant proteins to insecticides from different classes, inhibition assay was conducted with DEF and ten insecticides (inhibitors). The potent P450s inhibitor miconazole was utilised as a positive control inhibitor. IC50 determination was conducted as described in previous studies. […]. The 96 well-plate was pre-incubated for 5 minutes at 37°C and then 25μl regeneration buffer (7.8mg glucose-6-phosphate (G6P), 0.25mM MgCl2, 1.7mg NADP, 6U/ml glucose-6-phosphate dehydrogenase and 2% w/v NaHCO3) incorporated. Fluorescence was monitored for 21 cycles at interval of 1 minute with shaking at every step. Results were analysed using Magellan v6.2 software and inhibition at each inhibitor concentration and incubation time calculated as residual control activity towards DEF.

Series [1] concerns the target T1, UGANCYP6P9b (Anopheles funestus, UniProt A0A0S1S7Y0). In words: Inhibition of DEF dealkylation by insecticides (IC50). The class given is biochemical. The conditions noted are these: compared with averagely 10μM for the other proteins. The method, then: as §1
Series [2] addresses T2, MALCYP6P9b (Anopheles funestus, UniProt B5AII7). As to the kind of experiment: Pyrethroid depletion (metabolism) assay with recombinant enzyme. The series is classed as biochemical. The settings on record: 20μM insecticide, 1 hour, vs -NADPH.
Protocol: (§5) Membrane expressing recombinant CYP6P9a/-b and AgCPR, and reconstituted cytochrome b5 were added to the side of the tube and pre-incubated for 5 minutes at 30°C, with shaking at 1,200 rpm to activate the membrane. 20μM of test insecticide was then added into the final volume of 0.2ml (~2.5% v/v methanol), and reaction started by vortexing at 1,200 rpm and 30°C for 1 hour. Reactions were quenched with 0.1ml ice-cold methanol and incubated for 5 more minutes. Tubes were then centrifuged at 16,000 rpm and 4°C for 15 minutes, and 150μl of supernatant transferred into HPLC vials for analysis. Reactions were carried out in triplicates with experimental samples (+NADPH) and negative controls (-NADPH). 100μl of sample was loaded onto an isocratic mobile phase (90:10 v/v methanol to water) with a flow rate of 1ml/min, monitoring wavelength of 226nm and peaks separated with a 250mm C18 column (Acclaim 120, Dionex) on Agilent 1260 Infinity at 23°C. Enzyme activity was calculated as percentage depletion (the difference in the amount of insecticide(s) remaining in the +NADPH tubes compared with the–NADPH) and a t-test used for statistical analysis.
Series [3] deals with T3, BENCYP6P9b (Anopheles funestus, UniProt A0A0S1S7Y0). Described as above. The class given is biochemical. The settings on record: 20μM insecticide, 1 hour, vs -NADPH.
Series [4] addresses T1, UGANCYP6P9b. The description is as above. The series is classed as biochemical. The conditions noted are these: 20μM insecticide, 1 hour, vs -NADPH.
Series [5] addresses T4, FANGCYP6P9a (Anopheles funestus, UniProt K7Z0P3). Described as above. The class given is biochemical. The conditions noted are these: 20μM insecticide, 1 hour, vs -NADPH.
Protocol: as §5
The next series addresses UGANCYP6P9a (Anopheles funestus, UniProt B5AII6). The description is as above. The series is classed as biochemical. The settings on record: 20μM insecticide, 1 hour, vs -NADPH.
For series [6], the target named is T5, FANGCYP6P9b (Anopheles funestus, UniProt A0A0S1RZ61). The series is described as above. The settings on record: 20μM insecticide, 1 hour, vs -NADPH. The series is classed as biochemical.
Protocol: To establish whether allelic variation in CYP6P9a and CYP6P9b impact their metabolic activities toward insecticides, pyrethroids were screened with the recombinant enzymes from these genes. […] Membrane expressing recombinant CYP6P9a/-b and AgCPR, and reconstituted cytochrome b5 were added to the side of the tube and pre-incubated for 5 minutes at 30°C, with shaking at 1,200 rpm to activate the membrane. 20μM of test insecticide was then added into the final volume of 0.2ml (~2.5% v/v methanol), and reaction started by vortexing at 1,200 rpm and 30°C for 1 hour. Reactions were quenched with 0.1ml ice-cold methanol and incubated for 5 more minutes. Tubes were then centrifuged at 16,000 rpm and 4°C for 15 minutes, and 150μl of supernatant transferred into HPLC vials for analysis. Reactions were carried out in triplicates with experimental samples (+NADPH) and negative controls (-NADPH). 100μl of sample was loaded onto an isocratic mobile phase (90:10 v/v methanol to water) with a flow rate of 1ml/min, monitoring wavelength of 226nm and peaks separated with a 250mm C18 column (Acclaim 120, Dionex) on Agilent 1260 Infinity at 23°C. Enzyme activity was calculated as percentage depletion (the difference in the amount of insecticide(s) remaining in the +NADPH tubes compared with the–NADPH) and a t-test used for statistical analysis.
For a further series, the target named is MALCYP6P9a (Anopheles funestus, UniProt B5AII6). The description is as above. The conditions noted are these: 20μM insecticide, 1 hour, vs -NADPH. The class given is biochemical.
In series [7] the target is T6, BENCYP6P9a (Anopheles funestus, UniProt A0A0S1RZ75). Described as above. The class given is biochemical. The settings on record: 20μM insecticide, 1 hour, vs -NADPH.
Protocol: as §5
The target of series [8] is T1, UGANCYP6P9b. In words: Fluorogenic probe O-dealkylation, initial testing. The class given is biochemical. The settings on record: UGANCYP6P9b vs UGANCYP6P9a; 1μM probe. Here is the method: Four probes: 7-ethoxyresurofin (7-ER), 7-ethoxy-4-trifluoromethylcoumarin (7-EFC), 7-methoxy-4-trifluoromethylcoumarin (MFC) and diethoxyfluorescein (DEF) were initially tested with the various recombinant CYP6P9a and CYP6P9b proteins. In a total volume of 225μl containing ~10pmol P450, buffered with 50mM potassium phosphate buffer (KPi at pH 7.4 with 5mM MgCl2), 1μM probe substrate was added. Membranes were activated for 5 minutes at 37°C in fluorescence spectrophotometer Infinite M200 (TECAN) before 25μl NADPH regeneration buffer (1mM glucose-6-phosphate (G6P), 0.25mM MgCl2, 0.1mM NADP and 1U/ml glucose-6-phosphate dehydrogenase (G6PDH) prepared in KPi pH 7.4) was added. All reactions were conducted in three replicates with negative control (–NADPH) devoid of the regeneration buffer. […]. Results were analysed using Magellan v6.2 software.

In series [9] the test system is CYP6P9a/CYP6P9b (MALCYP6P9a, BENCYP6P9a, MALCYP6P9b, UGANCYP6P9b). In words: in vitro. The class given is biochemical, Anopheles funestus. The conditions noted are these: Anopheles funestus, pH 7.4, inhibition of DEF dealkylation, DDT value for all proteins excepting UGANCYP6P9b. The method, then: as §1
For series [10], the target named is T6, BENCYP6P9a. In words: Steady-state kinetics of pyrethroid metabolism. The class given is biochemical. The method, then:
(§2) Reactions were performed in triplicates both for +NADPH (experimental tubes) and–NADPH (negative control). K m and V max were established from the plot of substrate concentrations against the initial velocities and fitting of the data to the Michaelis-Menten module using the least squares non-linear regression, as described in the GraphPad Prism 6.03 Software (GraphPad Inc., La Jolla, CA, USA).

Series [11] concerns the target T1, UGANCYP6P9b. As to the kind of experiment: Steady-state kinetics of pyrethroid metabolism. The series is classed as biochemical. Here is the method:
as §2

The target in series [12] is T2, MALCYP6P9b. As to the kind of experiment: Steady-state kinetics of pyrethroid metabolism. The class given is biochemical. Here is the method: as §2
Series [13] addresses T3, BENCYP6P9b. As to the kind of experiment: Steady-state kinetics of pyrethroid metabolism. The series is classed as biochemical. The method, then: as §2
The subject of series [14] is transgenic flies over-expressing MALCYP6P9b. The conditions noted are these: 0.15% deltamethrin paper. Here is the method: (§3) Primers used for this PCR are given in S8 Table. PCR conditions, cloning techniques, construction of transgenic flies and expression of candidate genes was conducted as described in previous studies, with more details provided in S1 Text. For control group, flies with the same background as the UAS transgenic lines but devoid of the UAS construct with the candidate gene were crossed with the driver Actin5C-GAL4 line to generate Actin5C-GAL4-null flies.
(§4) These papers were then rolled and introduced into 45 cc plastic vials. The vials were then plugged with cotton wool soaked in 5% sucrose. 20–25 (2–4 days old, post-eclosion F1 females) were selected for the bioassays and introduced into the vials. Mortality plus knockdown was scored after 1 hr, 2 hrs, 3 hrs, 6 hrs, 12 hrs and 24 hrs post-exposure to the discriminating dose of the insecticides.

Series [15] has as its system transgenic flies over-expressing FANGCYP6P9b. The settings on record: 0.15% deltamethrin paper. Here is the method: as §3, §4
Series [16] deals with transgenic flies over-expressing FANGCYP6P9a. The conditions noted are these: 0.15% deltamethrin paper, 3 hrs. Here is the method: as §3, §4
Series [17] has as its system transgenic flies over-expressing MALCYP6P9a. The conditions noted are these: 0.15% deltamethrin paper, 3 hrs. Here is the method: as §3, §4
A further series has as its system CYP6M2. Details: method as in ref [5] (S1 Text). The conditions noted are these: An. gambiae CYP6M2 ref [5] (S1 Text); cited from earlier work.
In series [18] the target is T5, FANGCYP6P9b. Here is the method:
as §2

Series [19] has as its target T4, FANGCYP6P9a. The method, then:
as §2

The next series concerns CYP6Z8. Details: method as in ref [8] (S1 Text). The conditions noted are these: cited from earlier work; for Kcat: Ae. aegypti CYP6Z8 ref [8] (S1 Text).
For a further series, the system named is CYP6Z2. The conditions noted are these: cited from earlier work.

Read-outs that look alike come from different tables or passages of the source. Bounds are passed on as bounds.

Protocol for UGANCYP6P9a: as §5

As for `CCOc1ccc2ccc(=O)oc2c1` [7-ethoxycoumarin], in the series with CYP1A2 Glu^318Asp, the “increase of Kcat of O-dealkylation by Glu^318Asp substitution” value is listed as 13 fold.
The term IC50 denotes the point on the concentration scale where inhibition reaches its midpoint. Take `Clc1ccc(C(c2ccc(Cl)cc2)C(Cl)(Cl)Cl)cc1` [DDT]: the figures for the IC50 in the series on CYP6P9a/CYP6P9b and against UGANCYP6P9b [1] were approximately 10 µM and “much higher value”, respectively.
As for `Cc1c(COC(=O)[C@@H]2[C@H](/C=C(\Cl)C(F)(F)F)C2(C)C)cccc1-c1ccccc1` (racemic) [bifenthrin], the Percentage depletion result is “more than 80%” on MALCYP6P9b [2]; 81.6±0.25 % at MALCYP6P9b [2] (listed as Bifenthrin); 89.19±1.01 % at BENCYP6P9b [3]; 88.8±1.61 % on UGANCYP6P9b [4]; 16.6±5.41% on FANGCYP6P9a [5]; 50.31±3.8 % at UGANCYP6P9a. Besides, the Percentage depletion is 22.38±5.08% at FANGCYP6P9b [6], 60.48±2.65 % on MALCYP6P9a and 51.02±0.75 % at BENCYP6P9a [7].
Consider `CCOc1ccc2c(C(F)(F)F)cc(=O)oc2c1` [7-EFC, 7-ethoxy-4-trifluoromethylcoumarin], for which, at UGANCYP6P9b [8], the “O-dealkylation activity, fold of UGANCYP6P9a” value is on record as 17.9 fold.
Take `CNC(=O)Oc1ccccc1OC(C)C` [propoxur]: in [9], the IC50 is more than 25 µM.
Broadly, the Km is the substrate concentration at which the rate is half of its maximum. Usually mortality stands for the share of the test organisms that died. Lower therefore signals a weak lethal effect. Regarding `CC1(C)[C@H](C(=O)O[C@H](C#N)c2cccc(Oc3ccccc3)c2)[C@@H]1C=C(Br)Br` [deltamethrin], the Percentage depletion entry at MALCYP6P9b [2] is on record as “more than 80%”; on MALCYP6P9b [2] (listed as Deltamethrin), 81.69±2.27 %; at BENCYP6P9b [3], 62.03±1.14 %; on UGANCYP6P9b [4], 62.53±4.04 %; at FANGCYP6P9a [5] it was 18.11±2.15%; at UGANCYP6P9a, 57.9±2.74 %. Moreover, the figures for the Percentage depletion on FANGCYP6P9b [6], at MALCYP6P9a and at BENCYP6P9a [7] were 6.2±1.5%, 68.38±1.83 % and 59.54±5.11 %, respectively. The Kcat at BENCYP6P9a [10] is 8.78±2.62^a min^-1; on UGANCYP6P9b [11] it was 10.44±4.00^b min^-1; on MALCYP6P9b [12], 12.09±1.44^b min^-1; at BENCYP6P9b [13] it was 13.63±5.40^b min^-1; at FANGCYP6P9b [18], 0.082 ± 0.0137 s⁻¹; on FANGCYP6P9a [19] it was 0.0812 ± 0.0343 s⁻¹. For the same compound, the Km was 9.9 ± 1.65 µM at MALCYP6P9b [12], 2 µM in the series with CYP6M2 and 19.5 ± 5.53 µM at FANGCYP6P9b [18]. Besides, the mortality is 1.5% in series [14] (1 hr); 7.5% in series [14] (2 hrs); 12.5% in series [14] (3 hrs); 16% in [14] (6 hrs); 21% in series [14] (12 hrs); 41% in series [14] (24 hrs). The mortality worked out at 20% in series [15] (1 hr); 53% in series [15] (2 hrs); 62% in [15] (3 hrs); 70% in series [15] (6 hrs); 81% in [15] (12 hrs); 93% in series [15] (24 hrs). In addition, the mortality in series [16] is on record as 52%; in series [17] it was less than 30%.
Regarding `CCOc1ccc(C(C)(C)COCc2cccc(Oc3ccccc3)c2)cc1` [etofenprox], the Percentage depletion at MALCYP6P9b [2] was 71.59±1.42 %; on BENCYP6P9b [3] it was 37.15±4.15 %; at UGANCYP6P9b [4], 57.91±1.55 %; at FANGCYP6P9a [5] it was 7.28±1.53%; at UGANCYP6P9a it was 42.55±1.03 %; on FANGCYP6P9b [6] it was 16.88±3.06%. The Percentage depletion turned out to be 46.04±1.26 % at MALCYP6P9a and 41.22±1.54 % on BENCYP6P9a [7].
As for `CNC(=O)Oc1cccc2c1OC(C)(C)O2` [bendiocarb], the IC50 in series [9] is more than 25 µM.
Regarding `CC1(C)[C@H](C(=O)O[C@H](C#N)c2cccc(Oc3ccccc3)c2)[C@@H]1/C=C(\Cl)C(F)(F)F` (racemic) [λ-cyhalothrin], the Percentage depletion was 49.35±4.41 % at BENCYP6P9b [3]; 78.76±1.31 % on UGANCYP6P9b [4]; 15.46±4.43% on FANGCYP6P9a [5]; 47.74±1.5% at UGANCYP6P9a; 15.49±3.13% at FANGCYP6P9b [6]; 75.41±1.72% on MALCYP6P9a. Besides, the Percentage depletion on BENCYP6P9a [7] is listed as 52.45±1.74 %.
`O=c1ccc2nc3ccc(OCc4ccccc4)cc3oc-2c1` [benzyloxyresorufin]: the Kcat is 0.00162 s⁻¹ with CYP6Z8 and ~ 1.5 min^-1 in the series with CYP6Z2 (An. gambiae CYP6Z2 ref [7] (S1 Text)). Also, the Km in the series with CYP6Z8 (Aedes aegypti CYP6Z8-mediated de-benzylation ref [8] (S1 Text)) and in the series with CYP6Z2 (An. gambiae CYP6Z2-mediated de-benzylation ref [7] (S1 Text)) was approximately 0.13 µM each time.
With `CCOc1ccc2nc3ccc(=O)cc-3oc2c1` [ethoxyresorufin], the Kcat in the series with CYP6Z8 was 0.0198 s⁻¹.

These data come from article PMC4627800, “Allelic Variation of Cytochrome P450s Drives Resistance to Bednet Insecticides in a Major Malaria Vector” (PLoS Genetics, 2015).
